Structures can show the parent of a compound that is named as a salt. Where two headings read alike, the source gives them in different places.
Tests used:
Pim-1 = Pim-1 (Homo sapiens (Human), UniProt P11309); assay: Pim-Mn enzyme assay (HTRF, 384-well), Pim-1; format: biochemical; conditions: Pim-1 enzyme 5 pM, ATP 1.5 μM, BAD (S112) 0.5 μM, HTRF, 22-point curve; read-out: Pim-1-Mn IC50 IP
KMS-12-BM cell lines = assay: KMS12 #2 flow cytometry assay (phospho-BAD Ser112); format: cell-based; conditions: Homo sapiens, 110 min, read-out: KMS-12-Flow IC50 IP
Pim-2 = Pim-2 (Homo sapiens (Human), UniProt Q9P1W9); assay: Pim-Mn enzyme assay (HTRF, 384-well), Pim-2; format: biochemical; conditions: read-out: Pim-2-Mn IC50 IP
[1] = KMS-12-BM cells, pBAD Ser112 by flow cytometry, 110 min with compound
[2] = Pim-2 enzyme 0.5 pM, ATP 1.5 μM, BAD (S112) 0.5 μM, HTRF, 22-point curve

Chain of Pim-1 (P11309 whole entry): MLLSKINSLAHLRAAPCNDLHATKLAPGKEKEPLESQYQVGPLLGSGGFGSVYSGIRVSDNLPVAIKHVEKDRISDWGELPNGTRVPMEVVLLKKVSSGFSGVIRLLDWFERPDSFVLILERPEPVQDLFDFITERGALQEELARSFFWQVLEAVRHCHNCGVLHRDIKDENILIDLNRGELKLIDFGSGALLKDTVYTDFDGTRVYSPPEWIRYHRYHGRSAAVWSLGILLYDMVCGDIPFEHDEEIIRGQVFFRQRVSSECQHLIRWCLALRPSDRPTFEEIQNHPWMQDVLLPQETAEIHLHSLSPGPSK
Chain of Pim-2 (Q9P1W9 whole entry): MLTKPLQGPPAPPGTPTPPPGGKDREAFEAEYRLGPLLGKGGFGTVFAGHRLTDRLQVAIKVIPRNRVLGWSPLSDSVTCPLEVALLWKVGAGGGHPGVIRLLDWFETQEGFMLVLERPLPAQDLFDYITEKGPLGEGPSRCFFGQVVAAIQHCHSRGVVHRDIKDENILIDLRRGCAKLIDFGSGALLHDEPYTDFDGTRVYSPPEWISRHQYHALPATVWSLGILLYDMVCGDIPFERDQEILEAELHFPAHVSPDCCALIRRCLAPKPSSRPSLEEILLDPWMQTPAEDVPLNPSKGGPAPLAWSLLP

| Structure (SMILES) | IC50 (Pim-1) | IC50 (KMS-12-BM cell lines; [1]) | IC50 (Pim-2; [2]) | IC50 (Pim-2) | IC50 (KMS-12-BM cell lines; KMS-12-BM) |
| --- | --- | --- | --- | --- | --- |
| Cc1nc2cccc(-c3c[nH]c(C(N)=O)c3)c2nc1NC(C)(C)C [Example 420, 4-(3-(tert-butylamino)-2-methyl-5-quinoxalinyl)-1H-pyrrole-2-carboxamide] | 26.5 nM | 9120 nM | 34.8 nM |  |  |
| Cc1cccc(C)c1-c1cnc2cccc(-c3cc4c([nH]3)CCNC4=O)c2n1 [Example 401, 2-(3-(2,6-dimethylphenyl)-5-quinoxalinyl)-1,5,6,7-tetrahydro-4H-pyrrolo[3,2-c]pyridin-4-one] | 19.5 nM | 18500 nM | 34.9 nM |  |  |
| Cc1nc2ccc(F)c(-c3cc4c([nH]3)CCNC4=O)c2nc1NC(C)(C)CO [Example 370, 2-(6-fluoro-3-((1-hydroxy-2-methylpropan-2-yl)amino)-2-methylquinoxalin-5-yl)-6,7-dihydro-1H-pyrrolo[3,2-c]pyridin-4(5H)-one] | 0.992 nM | 143 nM | 0.272 nM |  |  |
| Cc1nc2cccc(-c3cc4c([nH]3)CNC4=O)c2nc1NC(C)(C)C [Example 334, 2-(3-(tert-Butylamino)-2-methyl-5-quinoxalinyl)-5,6-dihydropyrrolo[3,4-b]pyrrol-4(1H)-one] | 1.18 nM | 43.8 nM | 0.882 nM |  |  |
| Cc1nc2cccc(-c3cc4c([nH]3)[C@@H](C)NC4=O)c2nc1NC(C)C [Example 287, (6R)-6-methyl-2-(2-methyl-3-((1-methylethyl)amino)-5-quinoxalinyl)-5,6-dihydropyrrolo[3,4-b]pyrrol-4(1H)-one] | 1.78 nM | 75.8 nM | 1.64 nM |  |  |
| Cc1nc2cccc(-c3cc4n(c3)C(=O)NC4=O)c2nc1NC(C)(C)C [Example 422, 6-(3-(tert-Butylamino)-2-methyl-5-quinoxalinyl)-1H-pyrrolo[1,2-c]imidazole-1,3(2H)-dione] | 12.3 nM | 2610 nM | 37.1 nM |  |  |
| C[C@@H](O)c1nc2cccc(-c3cc4c([nH]3)CCNC4=O)c2nc1NC(C)(C)C [Example 311, (R)-2-(3-(tert-butylamino)-2-(1-hydroxyethyl)quinoxalin-5-yl)-6,7-dihydro-1H-pyrrolo[3,2-c]pyridin-4(5H)-one] | 1.98 nM | 151 nM | 1.95 nM |  |  |
| Cc1nc2cccc(-c3cc4c(=O)[nH]ncc4[nH]3)c2nc1NC(C)(C)C [Example 423, 2-(3-(tert-butylamino)-2-methylquinoxalin-5-yl)-1H-pyrrolo[2,3-d]pyridazin-4(5H)-one] | 5.44 nM | 378 nM | 3.71 nM |  |  |
| Cc1nc2cccc(-c3cc4c([nH]3)CCNC4=O)c2nc1NCC1(C)CC1 [Example 335, 2-(2-Methyl-3-(((1-methylcyclopropyl)methyl)amino)-5-quinoxalinyl)-1,5,6,7-tetrahydro-4H-pyrrolo[3,2-c]pyridin-4-one] | 1.22 nM | 99.3 nM | 0.996 nM |  |  |
| Cc1nc2cccc(-c3cc4c([nH]3)CCNC4=O)c2nc1NC(C)(C)CN [Example 341, 2-(3-((2-amino-1,1-dimethylethyl)amino)-2-methyl-5-quinoxalinyl)-1,5,6,7-tetrahydro-4H-pyrrolo[3,2-c]pyridin-4-one] | 6.85 nM | 7830 nM |  | 10.7 nM |  |
| Cc1nc2ccc(F)c(-c3cc4c([nH]3)[C@H](C)NC4=O)c2nc1NC1(C)CC1 [Example 380, (S)-2-(6-fluoro-2-methyl-3-((1-methylcyclopropyl)amino)quinoxalin-5-yl)-6-methyl-5,6-dihydropyrrolo[3,4-b]pyrrol-4(1H)-one] | 0.249 nM | 34.7 nM | 0.385 nM |  |  |
| Cc1nc2cccc(-c3cc4c([nH]3)CCNC4=O)c2nc1N1CC(S(C)(=O)=O)C1 [Example 318, 2-(2-methyl-3-(3-(methylsulfonyl)-1-azetidinyl)-5-quinoxalinyl)-1,5,6,7-tetrahydro-4H-pyrrolo[3,2-c]pyridin-4-one] | 34.1 nM | > 40000 nM | 26.7 nM |  |  |
| Cc1nc2ccc(F)c(-c3cc4c([nH]3)[C@H]([C@@H](C)O)NC4=O)c2nc1NC1CC1 [Example 352, (6R)-2-(3-(cyclopropylamino)-6-fluoro-2-methyl-5-quinoxalinyl)-6-((1R)-1-hydroxyethyl)-5,6-dihydropyrrolo[3,4-b]pyrrol-4(1H)-one] | 1.59 nM | 188 nM | 2.45 nM |  |  |
| C[C@H]1NC(=O)c2cc(-c3cccc4c(=O)[nH]c(N(C)C(C)(C)C)nc34)[nH]c21 [Example 407, 2-(tert-butyl(methyl)amino)-8-((6R)-6-methyl-4-oxo-1,4,5,6-tetrahydropyrrolo[3,4-b]pyrrol-2-yl)-4(3H)-quinazolinone] |  | 144 nM | 0.4 nM |  |  |
| Cn1c(NC(C)(C)C)nc2c(-c3cc4c([nH]3)CCNC4=O)cccc2c1=O [Example 448, 2-(tert-butylamino)-3-methyl-8-(4-oxo-4,5,6,7-tetrahydro-1H-pyrrolo[3,2-c]pyridin-2-yl)-4(3H)-quinazolinone] |  | 30.8 nM | 0.169 nM |  |  |
| Cc1nc2cccc(-c3cc4c([nH]3)CCNC4=O)c2nc1N[C@H]1C[C@@H](N)C1 [Example 435, 2-(3-((cis-3-aminocyclobutyl)amino)-2-methylquinoxalin-5-yl)-6,7-dihydro-1H-pyrrolo[3,2-c]pyridin-4(5H)-one hydrochloride] | 0.347 nM | 3000 nM |  |  |  |
| Cc1nc2cccc(-c3[nH]c4c(c3Cl)C(=O)NCC4)c2nc1NC(C)(C)C [Example 348, 2-(3-(tert-butylamino)-2-methyl-5-quinoxalinyl)-3-chloro-1,5,6,7-tetrahydro-4H-pyrrolo[3,2-c]pyridin-4-one] |  | 190 nM |  |  |  |
| CC(=O)N1CCc2[nH]c(-c3cccc4nc(C)c(NC(C)(C)C)nc34)cc2C1=O [Example 315, 5-acetyl-2-(3-(tert-butylamino)-2-methylquinoxalin-5-yl)-6,7-dihydro-1H-pyrrolo[3,2-c]pyridin-4(5H)-one] | 35.2 nM | 895 nM |  |  |  |
| Cc1nc2cccc(-c3cc4c([nH]3)CCNC4=O)c2nc1NC(C)(C)CCS(C)(=O)=O [Example 338, 2-(3-((1,1-dimethyl-3-(methylsulfonyl)propyl)amino)-2-methyl-5-quinoxalinyl)-1,5,6,7-tetrahydro-4H-pyrrolo[3,2-c]pyridin-4-one] |  | 14300 nM |  |  |  |
| CCn1c(NC(C)(C)C)nc2c(-c3cc4c([nH]3)[C@@H](C)NC4=O)cccc2c1=O [Example 481, (R)-2-(tert-butylamino)-3-ethyl-8-(6-methyl-4-oxo-1,4,5,6-tetrahydropyrrolo[3,4-b]pyrrol-2-yl)quinazolin-4(3H)-one] |  |  |  |  | 20 nM |
| Cc1nc2cccc(-c3cc4c([nH]3)CCNC4=O)c2nc1-c1c(F)cccc1Cl [Example 414, 2-(3-(2-chloro-6-fluorophenyl)-2-methyl-5-quinoxalinyl)-1,5,6,7-tetrahydro-4H-pyrrolo[3,2-c]pyridin-4-one] |  | 5860 nM |  |  |  |
| C[C@H]1NC(=O)c2cc(-c3cccc4c(=O)n(C5CC5)c(NC(C)(C)C)nc34)[nH]c21 [Example 475, 2-(tert-butylamino)-3-cyclopropyl-8-((6R)-6-methyl-4-oxo-1,4,5,6-tetrahydropyrrolo[3,4-b]pyrrol-2-yl)-4(3H)-quinazolinone] |  | 28 nM |  |  |  |
| Cn1c(NC(C)(C)C)nc2c(-c3cc4n(c3)CCNC4=O)cccc2c1=O [Example 449, 2-(tert-butylamino)-3-methyl-8-(1-oxo-1,2,3,4-tetrahydropyrrolo[1,2-a]pyrazin-7-yl)-4(3H)-quinazolinone] |  | 429 nM |  |  |  |
| Cc1nc2ccc(F)c(-c3cc4c([nH]3)[C@H](C)NC4=O)c2nc1NC(C)(C)C [Example 298, (6S)-2-(3-(tert-butylamino)-6-fluoro-2-methyl-5-quinoxalinyl)-6-methyl-5,6-dihydropyrrolo[3,4-b]pyrrol-4(1H)-one] |  | 57.1 nM |  |  |  |
| CC(C)n1c(NC(C)(C)C)nc2c(-c3cc4c([nH]3)[C@@H](C)NC4=O)cccc2c1=O [Example 406, 2-(tert-butylamino)-3-(1-methylethyl)-8-((6R)-6-methyl-4-oxo-1,4,5,6-tetrahydropyrrolo[3,4-b]pyrrol-2-yl)-4(3H)-quinazolinone] |  | 30 nM |  |  |  |
| Cc1nc2cccc(-c3cc4c([nH]3)C(CCN)NC4=O)c2nc1NC(C)(C)C (centres unmarked) [Example 463, 6-(2-aminoethyl)-2-(3-(tert-butylamino)-2-methyl-5-quinoxalinyl)-5,6-dihydropyrrolo[3,4-b]pyrrol-4(1H)-one] |  | 9 nM |  |  |  |
| Cn1c(NC(C)(C)C)nc2c(-c3cc4c([nH]3)CNC4=O)cccc2c1=O [Example 419, 2-(tert-butylamino)-3-methyl-8-(4-oxo-1,4,5,6-tetrahydropyrrolo[3,4-b]pyrrol-2-yl)-4(3H)-quinazolinone] |  | 48.3 nM |  |  |  |
| Cc1nc2cccc(-c3cc4c([nH]3)CCCNC4=O)c2nc1NC(C)(C)C [Example 305, 2-(3-(tert-butylamino)-2-methylquinoxalin-5-yl)-5,6,7,8-tetrahydropyrrolo[3,2-c]azepin-4(1H)-one] | 2.63 nM | 1640 nM |  |  |  |
| Cc1nc2cccc(-c3cc4c([nH]3)CCNC4=O)c2nc1-c1ccc(N)cc1Cl [Example 413, 2-(3-(4-amino-2-chlorophenyl)-2-methyl-5-quinoxalinyl)-1,5,6,7-tetrahydro-4H-pyrrolo[3,2-c]pyridin-4-one] |  | > 40000 nM |  |  |  |
| Cc1nc2cccc(-c3cc4c([nH]3)CCNC4=O)c2nc1NC(C)(C)CNC(=O)OC(C)(C)C [Example 339, tert-butyl (2-methyl-2-((3-methyl-8-(4-oxo-4,5,6,7-tetrahydro-1H-pyrrolo[3,2-c]pyridin-2-yl)-2-quinoxalinyl)amino)propyl)carbamate] | 50.8 nM | 2520 nM |  |  |  |

Reference: patent US9394297B2, “Amides as pim inhibitors” (AMGEN INC., priority 2012, dated 2016)
